The nature of data set [1]: Turbidity of crude library peptides (absorbance at 600 nm). The data set is classed as physicochemical. The conditions noted are these: Physical stability of peptides. The method, boiled down: (§1)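 Crude peptides at 267 μM in 50 mM sodium acetate pH 4.0 or 50 mM sodium phosphate pH 7.0, pre-incubated 1-2 h at room temperature, then 4 μM final ThT added. Turbidity read first as A600. ThT fluorescence (ex 450/em 480 nm) read every 10 min for 72 h at 40° C, with 5 min shaking before each read; fibril formation = average emission.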

Data set [2] in a line: Fibril formation of crude library peptides (Thioflavin T). The data set is classed as physicochemical. Set-up: key: average ThT fluorescence emission at 480 nm (ex 450 nm), raw units. The conditions noted are these: Physical stability of peptides. The essentials: as §1
For data set [3], the target named is GLP1R (Homo sapiens, UniProt P43220). As to the kind of experiment: hGLP1R potency, cAMP accumulation in CHO-K1 cells stably overexpressing hGLP1R. The data set is classed as cell-based. Set-up: host or cells: CHO-K1. To be noted: for Selectivity: SCTR EC50/GLP1R EC50 ratio; for EC50: cAMP accumulation, CHO-K1 cells overexpressing hGLP1R, read-out: pEC50 hGLPR1 (converted). The method, boiled down: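 CHO-K1 cells stably expressing hGLP1R (2000/well) in DPBS with 0.05% casein and 0.5 mM IBMX were stimulated 30 min at room temperature with graded compound doses; human GLP-1(7-36) served as positive control. cAMP was read by HTRF after 1 h; EC50 came from variable-slope sigmoid fits (purified peptides: 11-point 3-fold, n=2).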
GLP1R, sequence (P43220 24-463): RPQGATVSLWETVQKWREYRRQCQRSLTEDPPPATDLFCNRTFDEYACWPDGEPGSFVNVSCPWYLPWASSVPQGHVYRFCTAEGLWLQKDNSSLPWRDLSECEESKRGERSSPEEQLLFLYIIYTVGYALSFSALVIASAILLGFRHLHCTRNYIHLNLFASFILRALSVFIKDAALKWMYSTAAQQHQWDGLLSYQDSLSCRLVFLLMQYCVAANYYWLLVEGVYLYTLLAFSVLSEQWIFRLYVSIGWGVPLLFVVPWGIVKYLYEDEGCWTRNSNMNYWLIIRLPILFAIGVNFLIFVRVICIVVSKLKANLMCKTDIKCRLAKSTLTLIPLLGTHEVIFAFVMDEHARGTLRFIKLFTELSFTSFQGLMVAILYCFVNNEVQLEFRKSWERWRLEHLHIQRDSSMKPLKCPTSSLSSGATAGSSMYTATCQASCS

In data set [4] the target is SCTR (Homo sapiens, UniProt P47872). Description: hSCTR potency, cAMP accumulation in CHO-K1 cells stably overexpressing hSCTR. It counts as cell-based. The conditions noted are these: cAMP accumulation, CHO-K1 cells overexpressing hSCTR; read-out: pEC50 hSCTR (converted). The arrangement: alternatively Euroscreen ES-712-AF; FAST-0161L; host or cells: CHO-K1. The essentials:
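Cells plated at 2000/well in DPBS with 0.05% casein and 0.5 mM IBMX, stimulated 30 min at room temperature with graded compound doses; human secretin as positive control. cAMP read by TR-FRET after 1 h. Purified peptides tested at 11 3-fold dilutions, n=2; EC50 by variable-slope sigmoid fit.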

Numbered stars: 1 amine (or outer) side, 2 acyl side, 3 side chain; on linkers, the order of the positions; unused ones are H or OH. Square brackets hold non-standard residues; d marks the D form. Side chains are listed from the residue outwards. Peptide text beside a SMILES is read from it. * marks the point of attachment. C20 diacid = O=C(O)CCCCCCCCCCCCCCCCCCC(=O)*; γGlu = O=C(O)[C@H](CCC(=O)[*:2])N[*:1]; AEEA = NCCOCCOCC(=O)O; Aib = CC(C)(N)C(=O)O

SCTR, sequence (P47872 23-440): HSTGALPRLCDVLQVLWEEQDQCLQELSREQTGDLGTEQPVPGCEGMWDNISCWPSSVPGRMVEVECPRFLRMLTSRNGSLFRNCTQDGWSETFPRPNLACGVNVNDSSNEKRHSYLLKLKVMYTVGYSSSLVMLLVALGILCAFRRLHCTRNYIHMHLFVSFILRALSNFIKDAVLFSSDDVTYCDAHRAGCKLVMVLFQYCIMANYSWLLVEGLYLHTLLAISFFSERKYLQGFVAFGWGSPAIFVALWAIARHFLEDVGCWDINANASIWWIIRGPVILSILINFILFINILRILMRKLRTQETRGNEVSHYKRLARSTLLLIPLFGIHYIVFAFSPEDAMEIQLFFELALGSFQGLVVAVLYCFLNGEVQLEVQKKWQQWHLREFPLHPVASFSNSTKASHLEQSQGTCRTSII

Take `CC(C)C[C@H](NC(=O)[C@H](Cc1ccccc1)NC(=O)[C@H](CCCNC(=N)N)NC(=O)[C@H](CCC(N)=O)NC(=O)[C@@H](NC(=O)[C@H](C)NC(=O)[C@H](C)NC(=O)[C@H](CCC(=O)O)NC(=O)[C@H](CCC(=O)O)NC(=O)[C@H](CCCCNC(=O)COCCOCCNC(=O)COCCOCCNC(=O)CC[C@H](NC(=O)CCCCCCCCCCCCCCCCCCC(=O)O)C(=O)O)NC(=O)[C@H](CC(C)C)NC(=O)[C@H](CCC(=O)O)NC(=O)[C@H](CO)NC(=O)[C@@H](NC(=O)[C@H](CC(=O)O)NC(=O)[C@H](CO)NC(=O)[C@@H](NC(=O)[C@H](Cc1ccccc1)NC(=O)[C@@H](NC(=O)CNC(=O)[C@H](CCC(=O)O)NC(=O)C(C)(C)NC(=O)[C@@H](N)Cc1c[nH]cn1)[C@@H](C)O)[C@@H](C)O)C(C)C)[C@@H](C)O)C(=O)N[C@@H](CCC(=O)O)C(=O)N[C@@H](Cc1c[nH]cn1)C(=O)N[C@@H](CC(C)C)C(=O)N[C@H](C(N)=O)C(C)C` [compound 55] (H-H[Aib]EGTFTSDVSELK([AEEA-AEEA-γGlu-C20 diacid])EEAATQRFLEHLV-NH2): the “Turbidity (pH 7)” value in data set [1] is listed as 0.09. The Fibril formation in data set [2] came out at 6162. In data set [3], the Selectivity is recorded as 16315 and the EC50 is 0.01 nM. Moreover, the EC50 in data set [4] was 158 nM.

As for `CC(C)C[C@H](NC(=O)[C@H](Cc1ccccc1)NC(=O)[C@H](CCCNC(=N)N)NC(=O)[C@H](CCC(N)=O)NC(=O)[C@H](CCC(=O)O)NC(=O)[C@H](C)NC(=O)[C@H](C)NC(=O)[C@H](CCC(=O)O)NC(=O)[C@H](CCC(=O)O)NC(=O)[C@H](CCCCNC(=O)COCCOCCNC(=O)COCCOCCNC(=O)CC[C@H](NC(=O)CCCCCCCCCCCCCCCCCCC(=O)O)C(=O)O)NC(=O)[C@H](CC(C)C)NC(=O)[C@H](Cc1ccccc1)NC(=O)[C@H](CO)NC(=O)[C@@H](NC(=O)[C@H](CC(=O)O)NC(=O)[C@H](CO)NC(=O)[C@@H](NC(=O)[C@H](Cc1ccccc1)NC(=O)[C@@H](NC(=O)CNC(=O)[C@H](CCC(=O)O)NC(=O)C(C)(C)NC(=O)[C@@H](N)Cc1c[nH]cn1)[C@@H](C)O)[C@@H](C)O)C(C)C)C(=O)N[C@@H](CCC(=O)O)C(=O)N[C@@H](Cc1c[nH]cn1)C(=O)N[C@@H](CC(C)C)C(=O)N[C@H](C(N)=O)C(C)C` [compound 56] (H-H[Aib]EGTFTSDVSFLK([AEEA-AEEA-γGlu-C20 diacid])EEAAEQRFLEHLV-NH2), the “Turbidity (pH 7)” value in data set [1] is 0.10. Further, the Fibril formation in data set [2] stood at 11030. Also, in data set [3], the Selectivity is on record as 179887 and the EC50 is 0.0398 nM. For the same molecule, the EC50 in data set [4] is 7940 nM.

As for `CC(C)C[C@H](NC(=O)[C@H](Cc1ccccc1)NC(=O)[C@H](CCCNC(=N)N)NC(=O)[C@H](CCC(N)=O)NC(=O)[C@H](C)NC(=O)[C@H](C)NC(=O)[C@H](C)NC(=O)[C@@H](NC(=O)[C@H](CCC(=O)O)NC(=O)[C@H](CCCCNC(=O)COCCOCCNC(=O)COCCOCCNC(=O)CC[C@H](NC(=O)CCCCCCCCCCCCCCCCCCC(=O)O)C(=O)O)NC(=O)[C@H](CC(C)C)NC(=O)[C@H](CCC(=O)O)NC(=O)[C@H](CO)NC(=O)[C@@H](NC(=O)[C@H](CC(=O)O)NC(=O)[C@H](CO)NC(=O)[C@@H](NC(=O)[C@H](Cc1ccccc1)NC(=O)[C@@H](NC(=O)CNC(=O)[C@H](CCC(=O)O)NC(=O)C(C)(C)NC(=O)[C@@H](N)Cc1c[nH]cn1)[C@@H](C)O)[C@@H](C)O)C(C)C)[C@@H](C)O)C(=O)N[C@@H](CCC(=O)O)C(=O)N[C@@H](Cc1c[nH]cn1)C(=O)N[C@@H](CC(C)C)C(=O)N[C@H](C(N)=O)C(C)C` [compound 57] (H-H[Aib]EGTFTSDVSELK([AEEA-AEEA-γGlu-C20 diacid])ETAAAQRFLEHLV-NH2), the “Turbidity (pH 7)” value in data set [1] was determined as 0.08. Also, in data set [2], the Fibril formation is reported as 4882. Moreover, in data set [3], the Selectivity came out at 212618 and the EC50 is 0.0251 nM. Besides, in data set [4], the EC50 is 5010 nM.

Source of the values: patent US20260201008A1, “SECRETIN-DERIVED GLP1R SELECTIVE AGONISTS” (GUBRA A/S, priority 2023, published 2026).
